This is an account of results in article PMC5697638, “Identification of a Potent Phosphoinositide 3‐Kinase Pan Inhibitor Displaying a Strategic Carboxylic Acid Group and Development of Its Prodrugs” (Chemmedchem, 2017).

Holding throughout (format): biochemical
The target of experiment [1] is T1, human PI3Kα (PIK3CA/PIK3R1) (Homo sapiens, UniProt P42336).
T1 construct: purchased ProQinase, Germany 1161‐1165‐1
Kind of experiment: lipid kinase assay (ADP-Glo), PI3Kα. The conditions noted are these: for inhibition at 1 µM: determined at 1 μM, at least triplicate, read-out: Inhibitory activity, PI3K isoform α; for IC50: Table 2, mean of at least three determinations, 95 % confidence intervals, read-out: IC50 PI3Kα. On the procedure: (§1) In vitro selection, lipid kinase assay: To determine the inhibitory activity of the new molecular entities on PI3K enzyme, a lipid kinase assay was performed: recombinant proteins (30 ng), human PI3Kα (PIK3CA/PIK3R1, #1161‐1165‐1 ProQinase–Germany), hPI3Kβ (PIK3CB wt/PIK3R1, #1168‐1165‐1 ProQinase, Germany), hPI3Kγ (PIK3CG, #1163‐0000‐1 ProQinase, Germany), hPI3Kδ (PIK3CD/PIK3R1, #1162–1165‐1 ProQinase, Germany), hPI3K‐C2α (PIK3C2A, #14‐906 Merck Millipore_Merck KGaA, Germany), hPI3K‐C2β (PIK3C2B, #14‐907 Merck Millipore_Merck KGaA, Germany), hPI3K‐c2γ (PIK3C2G, #1207‐0000‐1 ProQinase, Germany), and hVps34 (PIK3C3, #1160‐0000‐1 ProQinase, Germany), were incubated in kinase buffer {12.5 μL; 20 mM Tris‐HCl pH 7.5, 10 mM MgCl2, 10 μM ATP, 0.05 mg mL^−1 BSA, 0.5 mM EDTA, 5 mM HEPES pH 7.5, for PI3Kα,PI3Kβ, PI3Kγ, PI3Kδ, PI3KC‐2α, and PI3KC‐2γ; 15 mM MnCl2, 5 mM EGTA, 100 μM ATP, 50 mM HEPES pH 7.5, 100 mM NaCl, and 0.03 % CHAPS for PI3K‐C2β and VPS34 {BSA=bovine serum albumin; EDTA=ethylenediaminetetraacetic acid; HEPES=4‐(2‐hydroxyethyl)‐1‐piperazineethanesulfonic acid; EGTA=ethylene glycol‐bis(2‐aminoethylether)‐N,N,N′,N′‐tetraacetic acid; CHAPS=3‐[(3‐cholamidopropyl)dimethylammonio]‐1‐propanesulfonate}. In the reaction, the ATP concentration used for different PI3Ks was defined on the basis of the Michaelis–Menten kinetics of each enzyme, provided by the supplier. Reaction was performed in presence of 0.5 mg mL^−1 lipid micelles (1:1 phosphatidylinositol/phosphatidylserine) and in the absence (DMSO alone) or presence of increasing concentrations of each compound (from 0.1 nM to 30 μM). The mixture was kept at room temperature (RT) for 30 min for PI3Kα, PI3Kβ, PI3Kγ, PI3Kδ, PI3KC‐2α, and PI3KC‐2γ and for 1 h for PI3K‐C2β and PI3K‐C3. The amount of ADP produced in the reaction was measured by using the ADP‐Glo Kinase Assay kit from Promega (#V9102) and a luminescence reader (Glomax multi detection system, Promega, model number 9301‐010).
(§2) The residual PI3K lipid kinase activity in the presence of each molecule at different concentrations was related to the control, intended as the recombinant protein in the presence of DMSO alone and was expressed as a percentage. To derive the IC50 value, all data (% of lipid kinase activity) were plotted on a dose–response curve (Graph Pad software), and the IC50 was calculated by using nonlinear regression fit (equation [log agonist] versus response).

In experiment [2] the target is T2, hPI3Kβ (PIK3CB wt/PIK3R1) (Homo sapiens, UniProt P42338).
T2 construct: purchased ProQinase, Germany 1168‐1165‐1
Kind of experiment: lipid kinase assay (ADP-Glo), PI3Kβ. The conditions noted are these: for inhibition at 1 µM: determined at 1 μM, at least triplicate, read-out: Inhibitory activity, PI3K isoform β; for IC50: Table 2, mean of at least three determinations, 95 % confidence intervals. On the procedure: as §1, §2

The target of a further experiment is T3, hPI3Kγ (PIK3CG) (Homo sapiens, UniProt P48736).
T3 construct: purchased ProQinase, Germany 1163‐0000‐1
As to the kind of experiment: lipid kinase assay (ADP-Glo), PI3Kγ. The conditions noted are these: for inhibition at 1 µM: determined at 1 μM, at least triplicate, read-out: Inhibitory activity, PI3K isoform γ; for IC50: Table 2, mean of at least three determinations, 95 % confidence intervals. On the procedure:
as §1, §2

A further experiment concerns the target T4, hPI3Kδ (PIK3CD/PIK3R1) (Homo sapiens, UniProt O00329).
T4 construct: purchased ProQinase, Germany 1162–1165‐1
Kind of experiment: lipid kinase assay (ADP-Glo), PI3Kδ. As to conditions: for inhibition at 1 µM: determined at 1 μM, at least triplicate, read-out: Inhibitory activity, PI3K isoform δ; for IC50: Table 2, mean of at least three determinations, 95 % confidence intervals. On the procedure: as §1, §2

T2 sequence (P42338 whole entry): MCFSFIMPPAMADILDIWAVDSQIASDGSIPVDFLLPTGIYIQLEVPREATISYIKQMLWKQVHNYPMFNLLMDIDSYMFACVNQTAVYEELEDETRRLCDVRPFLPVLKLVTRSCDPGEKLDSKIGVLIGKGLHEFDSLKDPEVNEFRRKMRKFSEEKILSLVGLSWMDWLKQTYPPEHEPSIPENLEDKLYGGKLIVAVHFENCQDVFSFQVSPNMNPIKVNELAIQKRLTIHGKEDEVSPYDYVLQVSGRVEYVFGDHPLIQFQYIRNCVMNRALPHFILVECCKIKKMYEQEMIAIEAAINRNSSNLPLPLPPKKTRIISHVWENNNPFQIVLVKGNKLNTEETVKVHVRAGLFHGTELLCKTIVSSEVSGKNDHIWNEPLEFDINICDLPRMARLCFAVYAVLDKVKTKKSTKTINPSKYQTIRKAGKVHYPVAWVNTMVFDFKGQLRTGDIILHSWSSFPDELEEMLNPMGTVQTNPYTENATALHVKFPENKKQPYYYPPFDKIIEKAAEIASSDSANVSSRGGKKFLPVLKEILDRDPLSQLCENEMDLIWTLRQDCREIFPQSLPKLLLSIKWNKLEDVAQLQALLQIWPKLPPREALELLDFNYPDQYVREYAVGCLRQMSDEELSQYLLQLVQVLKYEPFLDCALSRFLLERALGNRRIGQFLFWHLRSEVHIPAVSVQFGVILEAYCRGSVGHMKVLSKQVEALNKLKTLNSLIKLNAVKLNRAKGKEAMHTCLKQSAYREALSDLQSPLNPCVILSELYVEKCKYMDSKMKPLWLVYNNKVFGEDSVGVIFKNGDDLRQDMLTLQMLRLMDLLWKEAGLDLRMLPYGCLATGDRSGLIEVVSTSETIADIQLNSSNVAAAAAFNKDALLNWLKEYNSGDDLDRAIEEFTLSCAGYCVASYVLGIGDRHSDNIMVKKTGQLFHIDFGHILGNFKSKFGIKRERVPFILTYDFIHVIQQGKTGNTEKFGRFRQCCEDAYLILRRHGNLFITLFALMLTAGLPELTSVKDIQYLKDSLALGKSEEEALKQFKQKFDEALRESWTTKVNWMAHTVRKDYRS
T2 sequence (P27986 whole entry partner): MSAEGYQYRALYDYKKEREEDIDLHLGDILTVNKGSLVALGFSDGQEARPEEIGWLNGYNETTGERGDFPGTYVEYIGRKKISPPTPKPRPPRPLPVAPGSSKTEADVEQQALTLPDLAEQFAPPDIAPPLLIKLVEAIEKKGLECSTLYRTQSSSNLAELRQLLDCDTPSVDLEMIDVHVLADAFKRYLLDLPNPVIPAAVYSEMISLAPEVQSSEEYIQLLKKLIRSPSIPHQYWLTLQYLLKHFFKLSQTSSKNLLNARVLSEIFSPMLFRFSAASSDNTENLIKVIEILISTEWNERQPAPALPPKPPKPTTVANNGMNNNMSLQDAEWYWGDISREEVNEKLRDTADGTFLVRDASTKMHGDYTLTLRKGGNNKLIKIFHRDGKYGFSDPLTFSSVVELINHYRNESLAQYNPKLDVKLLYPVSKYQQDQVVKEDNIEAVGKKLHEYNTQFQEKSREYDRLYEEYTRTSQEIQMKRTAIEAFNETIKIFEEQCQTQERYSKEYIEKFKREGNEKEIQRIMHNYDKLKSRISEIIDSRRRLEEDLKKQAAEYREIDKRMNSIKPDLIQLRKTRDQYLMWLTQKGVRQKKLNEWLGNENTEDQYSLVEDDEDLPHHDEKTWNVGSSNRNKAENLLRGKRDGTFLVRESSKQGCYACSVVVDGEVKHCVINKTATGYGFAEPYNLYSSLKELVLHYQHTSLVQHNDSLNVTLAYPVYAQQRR
T1 sequence (P42336 whole entry): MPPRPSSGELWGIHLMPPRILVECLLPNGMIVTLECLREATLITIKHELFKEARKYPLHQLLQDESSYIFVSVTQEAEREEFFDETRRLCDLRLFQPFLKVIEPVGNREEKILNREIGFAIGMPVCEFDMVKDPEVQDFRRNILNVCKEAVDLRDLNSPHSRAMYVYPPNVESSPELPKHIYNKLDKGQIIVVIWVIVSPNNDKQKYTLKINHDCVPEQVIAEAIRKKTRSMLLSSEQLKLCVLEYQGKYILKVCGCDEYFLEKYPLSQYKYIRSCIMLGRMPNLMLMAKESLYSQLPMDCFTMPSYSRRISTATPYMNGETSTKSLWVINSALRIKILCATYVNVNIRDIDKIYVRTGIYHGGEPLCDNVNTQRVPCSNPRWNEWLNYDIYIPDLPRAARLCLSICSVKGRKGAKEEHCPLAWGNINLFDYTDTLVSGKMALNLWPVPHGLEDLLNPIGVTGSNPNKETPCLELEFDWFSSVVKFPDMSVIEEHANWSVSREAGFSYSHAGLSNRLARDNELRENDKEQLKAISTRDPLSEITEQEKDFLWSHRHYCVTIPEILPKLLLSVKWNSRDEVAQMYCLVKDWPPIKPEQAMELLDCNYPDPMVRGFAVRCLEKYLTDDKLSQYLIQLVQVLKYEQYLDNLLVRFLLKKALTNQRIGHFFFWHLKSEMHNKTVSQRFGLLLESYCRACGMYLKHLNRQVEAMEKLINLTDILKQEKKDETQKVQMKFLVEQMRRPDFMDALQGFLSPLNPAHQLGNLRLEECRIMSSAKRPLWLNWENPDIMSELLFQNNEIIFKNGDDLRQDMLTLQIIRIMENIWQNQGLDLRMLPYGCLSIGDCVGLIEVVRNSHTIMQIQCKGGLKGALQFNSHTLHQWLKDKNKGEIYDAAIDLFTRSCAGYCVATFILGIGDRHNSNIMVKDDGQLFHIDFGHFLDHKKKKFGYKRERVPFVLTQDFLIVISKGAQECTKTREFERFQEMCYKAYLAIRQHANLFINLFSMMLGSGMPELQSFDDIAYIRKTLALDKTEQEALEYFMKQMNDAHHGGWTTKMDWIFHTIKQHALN
T1 sequence (P27986 whole entry partner): as the sequence (P27986 whole entry partner) above
T3 sequence (P48736 whole entry): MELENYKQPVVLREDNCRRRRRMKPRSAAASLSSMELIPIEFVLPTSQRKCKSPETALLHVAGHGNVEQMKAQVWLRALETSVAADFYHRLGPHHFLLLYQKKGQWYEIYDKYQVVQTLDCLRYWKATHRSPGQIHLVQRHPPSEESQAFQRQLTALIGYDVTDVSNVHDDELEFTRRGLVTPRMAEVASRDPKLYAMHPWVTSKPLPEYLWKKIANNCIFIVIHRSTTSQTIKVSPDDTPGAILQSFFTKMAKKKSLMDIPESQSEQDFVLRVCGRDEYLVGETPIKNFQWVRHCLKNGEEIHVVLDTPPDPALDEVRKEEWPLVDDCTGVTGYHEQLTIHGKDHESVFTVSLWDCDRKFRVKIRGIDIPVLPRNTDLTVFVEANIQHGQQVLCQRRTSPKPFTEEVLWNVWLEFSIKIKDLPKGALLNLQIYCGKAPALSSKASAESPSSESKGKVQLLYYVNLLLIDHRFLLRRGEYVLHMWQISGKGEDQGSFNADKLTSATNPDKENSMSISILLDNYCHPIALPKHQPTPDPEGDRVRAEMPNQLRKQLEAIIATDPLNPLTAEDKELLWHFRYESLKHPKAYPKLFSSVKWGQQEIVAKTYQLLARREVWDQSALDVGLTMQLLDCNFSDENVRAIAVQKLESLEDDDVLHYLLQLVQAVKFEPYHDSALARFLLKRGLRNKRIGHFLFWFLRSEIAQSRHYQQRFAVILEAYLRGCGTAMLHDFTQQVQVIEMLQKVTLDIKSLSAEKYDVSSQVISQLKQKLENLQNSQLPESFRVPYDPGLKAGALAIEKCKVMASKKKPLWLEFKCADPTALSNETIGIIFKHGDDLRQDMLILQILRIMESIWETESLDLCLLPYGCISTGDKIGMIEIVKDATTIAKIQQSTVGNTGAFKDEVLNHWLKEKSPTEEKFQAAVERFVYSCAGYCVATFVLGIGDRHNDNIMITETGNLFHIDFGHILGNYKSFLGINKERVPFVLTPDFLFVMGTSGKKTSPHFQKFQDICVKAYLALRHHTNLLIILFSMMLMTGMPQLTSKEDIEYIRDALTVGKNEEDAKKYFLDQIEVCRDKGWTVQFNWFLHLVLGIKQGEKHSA
T4 sequence (O00329 whole entry): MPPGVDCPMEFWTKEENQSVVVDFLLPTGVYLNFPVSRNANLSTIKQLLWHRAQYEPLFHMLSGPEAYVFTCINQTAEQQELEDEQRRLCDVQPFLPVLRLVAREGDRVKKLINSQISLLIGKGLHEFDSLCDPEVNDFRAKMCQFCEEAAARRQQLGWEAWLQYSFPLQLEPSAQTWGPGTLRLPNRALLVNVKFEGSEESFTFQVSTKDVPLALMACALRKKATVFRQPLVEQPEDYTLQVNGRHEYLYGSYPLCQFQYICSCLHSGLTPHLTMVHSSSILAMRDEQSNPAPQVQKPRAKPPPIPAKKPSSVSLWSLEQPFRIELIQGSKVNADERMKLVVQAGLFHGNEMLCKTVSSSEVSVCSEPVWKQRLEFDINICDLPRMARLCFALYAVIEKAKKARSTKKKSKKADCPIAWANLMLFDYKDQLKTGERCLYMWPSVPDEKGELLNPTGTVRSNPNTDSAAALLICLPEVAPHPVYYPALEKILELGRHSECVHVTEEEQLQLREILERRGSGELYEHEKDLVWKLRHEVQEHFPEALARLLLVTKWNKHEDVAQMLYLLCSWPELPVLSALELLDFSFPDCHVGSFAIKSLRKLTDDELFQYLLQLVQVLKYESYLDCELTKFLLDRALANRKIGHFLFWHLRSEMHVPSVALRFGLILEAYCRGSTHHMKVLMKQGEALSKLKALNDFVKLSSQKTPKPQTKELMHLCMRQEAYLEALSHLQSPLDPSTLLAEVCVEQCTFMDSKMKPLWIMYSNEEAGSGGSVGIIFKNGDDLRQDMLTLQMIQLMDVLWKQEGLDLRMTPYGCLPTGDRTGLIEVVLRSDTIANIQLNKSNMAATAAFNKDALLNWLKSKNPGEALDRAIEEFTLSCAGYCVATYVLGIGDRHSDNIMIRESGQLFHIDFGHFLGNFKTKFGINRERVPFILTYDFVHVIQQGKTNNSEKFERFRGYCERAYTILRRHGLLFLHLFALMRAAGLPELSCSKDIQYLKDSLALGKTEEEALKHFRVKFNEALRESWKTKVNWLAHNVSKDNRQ
T4 sequence (P27986 whole entry partner): as the sequence (P27986 whole entry partner) above

Regarding `O=c1cc(N2CCOCC2)[nH]c2c(-c3cn(-c4cnc5ccccc5c4)nn3)cccc12` [Compound 36, 2‐Morpholino‐8‐[1‐(quinolin‐3‐yl)‐1H‐1,2,3‐triazol‐4‐yl]quinolin‐4(1H)‐one], the inhibition at 1 µM (in experiment [1]; in experiment [2]; on hPI3Kγ (PIK3CG); at hPI3Kδ (PIK3CD/PIK3R1)) was < 50% each time.

Take `COc1ccc(NC(C)=O)cc1-n1cc(-c2cccc3c(=O)cc(N4CCOCC4)[nH]c23)nn1` [Compound 38, N ‐{4‐Methoxy‐3‐[4‐(2‐morpholino‐4‐oxo‐1,4‐dihydroquinolin‐8‐yl)‐1H‐1,2,3‐triazol‐1‐yl]phenyl}acetamide]: the inhibition at 1 µM (in experiment [1]; in experiment [2]; on hPI3Kγ (PIK3CG); on hPI3Kδ (PIK3CD/PIK3R1)) was < 50% in each case.

Consider `Cc1cc(O)ccc1-n1cc(-c2cccc3c(=O)cc(N4CCOCC4)[nH]c23)nn1` [Compound 40, 8‐[1‐(4‐Hydroxy‐2‐methylphenyl)‐1H‐1,2,3‐triazol‐4‐yl]‐2‐morpholinoquinolin‐4(1H)‐one], for which the inhibition at 1 µM (in experiment [1]; in experiment [2]; at hPI3Kγ (PIK3CG); on hPI3Kδ (PIK3CD/PIK3R1)) was < 50% throughout.

As to `O=c1cc(N2CCOCC2)[nH]c2c(-c3cn(-c4ccccc4CO)nn3)cccc12` [Compound 41, 8‐{1‐[2‐(Hydroxymethyl)phenyl]‐1H‐1,2,3‐triazol‐4‐yl}‐2‐morpholinoquinolin‐4(1H)‐one], the inhibition at 1 µM (in experiment [1]; in experiment [2]; on hPI3Kγ (PIK3CG); on hPI3Kδ (PIK3CD/PIK3R1)) was < 50% in each case.

Regarding `COC(=O)c1ccc(-n2cc(-c3cccc4c(=O)cc(N5CCOCC5)[nH]c34)nn2)cc1` [Compound 42, Methyl 4‐[4‐(2‐morpholino‐4‐oxo‐1,4‐dihydroquinolin‐8‐yl)‐1H‐1,2,3‐triazol‐1‐yl]benzoate], the inhibition at 1 µM (in experiment [1]; in experiment [2]; at hPI3Kγ (PIK3CG); at hPI3Kδ (PIK3CD/PIK3R1)) was < 50% in each case.

Consider `COc1ccc(-n2cc(-c3cccc4c(=O)cc(N5CCOCC5)[nH]c34)nn2)cc1OC` [Compound 43, 8‐[1‐(3,4‐Dimethoxyphenyl)‐1H‐1,2,3‐triazol‐4‐yl]‐2‐morpholinoquinolin‐4(1H)‐one], for which the inhibition at 1 µM (in experiment [1]; in experiment [2]; on hPI3Kγ (PIK3CG); at hPI3Kδ (PIK3CD/PIK3R1)) was < 50% each time.

For the compound `COc1ccc(-n2cc(-c3cccc4c(=O)cc(N5CCOCC5)[nH]c34)nn2)cc1` [Compound 44, 8‐[1‐(4‐Methoxyphenyl)‐1H‐1,2,3‐triazol‐4‐yl]‐2‐morpholinoquinolin‐4(1H)‐one], the inhibition at 1 µM (in experiment [1]; in experiment [2]; at hPI3Kγ (PIK3CG); on hPI3Kδ (PIK3CD/PIK3R1)) was < 50% throughout.

With `O=C(O)c1ccc(-n2cc(-c3cccc4c(=O)cc(N5CCOCC5)[nH]c34)nn2)cc1` [Compound 45, 4‐[4‐(2‐Morpholino‐4‐oxo‐1,4‐dihydroquinolin‐8‐yl)‐1H‐1,2,3‐triazol‐1‐yl]benzoic acid], the 50% inhibitory concentration (IC50) in experiment [1] came out at 0.32 ± 0.2 µM; in experiment [2], 0.3 ± 0.2 µM; at hPI3Kγ (PIK3CG) it was 0.3 ± 0.2 µM; against hPI3Kδ (PIK3CD/PIK3R1), 0.17 ± 0.1 µM. The inhibition at 1 µM (in experiment [1]; in experiment [2]; on hPI3Kγ (PIK3CG); on hPI3Kδ (PIK3CD/PIK3R1)) was > 50% in each case.

For the compound `O=c1cc(N2CCOCC2)[nH]c2c(-c3cn(-c4ccc5c(c4)OCO5)nn3)cccc12` [Compound 46, 8‐[1‐(Benzo[d][1,3]dioxol‐5‐yl)‐1H‐1,2,3‐triazol‐4‐yl]‐2‐morpholinoquinolin‐4(1H)‐one], the inhibition at 1 µM (in experiment [1]; in experiment [2]; at hPI3Kγ (PIK3CG); on hPI3Kδ (PIK3CD/PIK3R1)) was < 50% throughout.

On to `COc1cc(OC)cc(-n2cc(-c3cccc4c(=O)cc(N5CCOCC5)[nH]c34)nn2)c1` [Compound 47, 8‐[1‐(3,5‐Dimethoxyphenyl)‐1H‐1,2,3‐triazol‐4‐yl]‐2‐morpholinoquinolin‐4(1H)‐one], for which the inhibition at 1 µM (in experiment [1]; in experiment [2]; on hPI3Kγ (PIK3CG); on hPI3Kδ (PIK3CD/PIK3R1)) was < 50% each time.

Regarding `O=c1cc(N2CCOCC2)[nH]c2c(-c3cn(Cc4ccccc4)nn3)cccc12` [Compound 48, 8‐(1‐Benzyl‐1H‐1,2,3‐triazol‐4‐yl)‐2‐morpholinoquinolin‐4(1H)‐one], the IC50 in experiment [1] was found to be 2.65 ± 0.8 µM; in experiment [2], 0.1 ± 0.04 µM; against hPI3Kγ (PIK3CG) it was 1 ± 0.5 µM; against hPI3Kδ (PIK3CD/PIK3R1), 0.47 ± 0.26 µM. In addition, the inhibition at 1 µM was < 50% in experiment [1], > 50% in experiment [2], > 50% at hPI3Kγ (PIK3CG) and > 50% at hPI3Kδ (PIK3CD/PIK3R1).

For `COC(=O)c1cccc(-n2cc(-c3cccc4c(=O)cc(N5CCOCC5)[nH]c34)nn2)c1` [Compound 49, Methyl 3‐[4‐(2‐morpholino‐4‐oxo‐1,4‐dihydroquinolin‐8‐yl)‐1H‐1,2,3‐triazol‐1‐yl]benzoate], the inhibition at 1 µM (in experiment [1]; in experiment [2]; at hPI3Kγ (PIK3CG); on hPI3Kδ (PIK3CD/PIK3R1)) was < 50% in each case.

For `NS(=O)(=O)c1ccc(-n2cc(-c3cccc4c(=O)cc(N5CCOCC5)[nH]c34)nn2)cc1` [Compound 50, 4‐[4‐(2‐Morpholino‐4‐oxo‐1,4‐dihydroquinolin‐8‐yl)‐1H‐1,2,3‐triazol‐1‐yl]benzenesulfonamide], the inhibition at 1 µM (in experiment [1]; in experiment [2]; at hPI3Kγ (PIK3CG); on hPI3Kδ (PIK3CD/PIK3R1)) was < 50% each time.

For the compound `O=C(O)c1cccc(-n2cc(-c3cccc4c(=O)cc(N5CCOCC5)[nH]c34)nn2)c1` [Compound 52, 3‐[4‐(2‐Morpholino‐4‐oxo‐1,4‐dihydroquinolin‐8‐yl)‐1H‐1,2,3‐triazol‐1‐yl]benzoic acid], the inhibition at 1 µM (in experiment [1]; in experiment [2]; at hPI3Kγ (PIK3CG); on hPI3Kδ (PIK3CD/PIK3R1)) was < 50% each time.

For the compound `O=c1cc(N2CCOCC2)[nH]c2c(-c3cn(-c4cccc5ccccc45)nn3)cccc12` [Compound 53, 2‐Morpholino‐8‐[1‐(naphthalen‐1‐yl)‐1H‐1,2,3‐triazol‐4‐yl]quinolin‐4(1H)‐one], the inhibition at 1 µM (in experiment [1]; in experiment [2]; at hPI3Kγ (PIK3CG); at hPI3Kδ (PIK3CD/PIK3R1)) was < 50% throughout.

Consider `O=c1cc(N2CCOCC2)[nH]c2c(-c3cn(-c4ccccc4O)nn3)cccc12` [Compound 54, 8‐[1‐(2‐Hydroxyphenyl)‐1H‐1,2,3‐triazol‐4‐yl]‐2‐morpholinoquinolin‐4(1H)‐one], for which the IC50 in experiment [1] was 0.26 ± 0.12 µM; in experiment [2] it was 1.1 ± 0.5 µM; against hPI3Kγ (PIK3CG), 1.4 ± 0.44 µM; against hPI3Kδ (PIK3CD/PIK3R1), 0.35 ± 0.17 µM. The inhibition at 1 µM in experiment [1] was > 50%; in experiment [2], < 50%; on hPI3Kγ (PIK3CG), < 50%; at hPI3Kδ (PIK3CD/PIK3R1), > 50%.

In the case of `Cc1cc(F)ccc1Oc1cccc2c(=O)cc(N3CCOCC3)[nH]c12` [TGX155, reference compound], the IC50 in experiment [1] was > 10 µM; in experiment [2], 0.096 ± 0.007 µM; at hPI3Kγ (PIK3CG) it was 9.4 ± 1.2 µM; on hPI3Kδ (PIK3CD/PIK3R1), 0.41 ± 0.13 µM.
